According to patent publication US20080182751A1, “Brassicaceae Plant Materials and Method for Their Use as Biopesticides” (Idaho Research Foundation, Inc., priority 2006, published 2008):

Legend:
[1] = Stability of 4-hydroxybenzyl isothiocyanate in buffered aqueous solutions (citrate buffers); type: physicochemical; settings: citrate buffer
Protocol: Stability of 4-Hydroxybenzyl Isothiocyanate in Buffered Media. Partially purified 4-hydroxybenzyl isothiocyanate was prepared by suspending 500 grams of S. alba seed meal in 2 liters of deionized water and extracting the mixture with 500 milliliters of ethyl acetate for 24 hours. The ethyl acetate extract was separated by decanting the top organic layer after centrifugation, dried with 100 g of anhydrous sodium sulfate over night, and concentrated under vacuum at laboratory temperature. The crude 4-hydroxybenzyl isothiocyanate extract was further purified by preparative column chromatography on silica gel (500 grams). […] Content of 4-hydroxybenzyl isothiocyanate within the fractions was verified by GC-MS using instrumentation and conditions as described previously. Fractions containing 4-hydroxybenzyl isothiocyanate were combined and concentrated under vacuum at laboratory temperature producing a yellowish, viscous fluid displaying only 4-hydroxybenzyl isothiocyanate and pentane/methylene chloride solvent peaks in the GC chromatogram. No further concentration of 4-hydroxybenzyl isothiocyanate was achieved using vacuum distillation because of its instability.
The pH stability of 4-hydroxybenzyl isothiocyanate was analyzed by incubating 25 μL of partially purified extract dissolved in 25 milliliters of eight different buffers with pH values ranging from 3.0 to 6.5 (FIG. 7). 0.1 M buffers were used, and were prepared by mixing 0.2 M sodium citrate and citric acid solutions in pre-calculated ratios ranging from 4 milliliters sodium citrate and 46 milliliters citric acid to 41 milliliters sodium citrate and 9 milliliters citric acid in a total volume of […]. Actual pH values of the buffers of 3.03, 3.52, 4.02, 4.49, 5.00, 5.46, 5.91, and 6.52 were verified using an Orion model 420A pH meter (Orion Research, Boston). At specific times during the incubation a 1-milliliter sample was withdrawn from the buffered reaction solution with a syringe and injected into a Waters Integrity HPLC system (2695 separation module, 996 PDA, and TMD) equipped with a 150×2 mm i.d., 5 μm Aqua C-18 column (Phenomenex). The instrument was operated at a constant flow rate of 200 μL/min with a gradient from 5 to 35% of methanol during each 30-minute run. Half-lives for 4 hydroxybenzyl isothiocyanate were estimated from straight lines obtained by plotting the natural logarithm of the normalized concentration versus time (FIG. 7). This experiment was repeated twice with two different meal extracts acquired by the same procedures from the same seed material. Half-lives from only one of the experiments are reported since the results for both experiments were similar.

[2] = pH stability of 4-OH benzyl ITC in 5 buffer solutions; type: physicochemical
Protocol: The pH stability of 4-OH benzyl ITC was assayed by incubating it in 5 buffer solutions (sodium acetate/acetic acid from pH range 3 to 5 and monosodium phosphate/phosphatic acid for pH above 5) with pHs ranging from 3.0 to 7.0. At specific times during the incubation a sample from the incubated solution was withdrawn with a syringe and injected into an HPLC-PDA (Waters Integrity system, separation module 2695, photodiode array detector 996, column Phenomenex Aqua C-18, 5 μm, 150×2 mm, with a constant flow rate of 200 μl/minute gradient from 5 to 35% of methanol in 30 minutes). The amount of 4-OH benzyl ITC was determined using calibration with benzyl ITC.

[3] = tested on: weeds; settings: Harvey 1931; cited from earlier work
[4] = tested on: cotton; settings: solutions sprayed directly on vegetative growth (Harvey 1931); cited from earlier work
[5] = tested on: wheat; settings: effect no longer observed at 69 days post application (Bissey and Butler 1934); cited from earlier work

SMILES: Oc1ccc(CN=C=S)cc1 [4-hydroxybenzyl isothiocyanate]
- half-life ([1]; pH 3.0 buffer): 5.35 h
- half-life ([1]; pH 3.5 buffer): 5.2 h
- half-life ([1]; pH 4.0 buffer): 4.5 h
- half-life ([1]; pH 4.5 buffer): 3.25 h
- half-life ([1]; pH 5.0 buffer): 1.67 h
- half-life ([1]; pH 5.5 buffer): 0.817 h
- half-life ([1]; pH 6.0 buffer): 0.267 h
- half-life ([1]; pH 6.5 buffer): 0.1 h
- Half Life ([2]; pH 3): 3.6 h
- Half Life ([2]; pH 4): 2.1 h
- Half Life ([2]; pH 5): 1.5 h
- Half Life ([2]; pH 6): 0.1 h
- Half Life ([2]; pH 7, listed as isothiocyanate precursor): 0.08 h
- half-life ([2]; sodium acetate/acetic acid buffer, pH 3.0): 3.6 h

SMILES: N#CS [SCN^−, ionic thiocyanate]
- rate necessary for complete plant kill for 4 months [3]: 1,366 kg SCN^−/ha
- rate removing a large percentage of the weeds [3]: 137 kilograms/SCN^− ha
- rate at which cotton defoliation was possible [4]: 8.6 kilograms SCN^−/ha
- application rate causing inhibition of wheat germination [5]: 342 kilograms SCN^−/ha
